Data from US11964955B2, “Mixtures of cannabinoid compounds, and production and use thereof” (priority 2015, dated 2024).
Entries after “also recorded” stand apart in the source; their conditions may differ. Read-outs that look alike come from different tables or passages of the source.

Tests used:
[1] = target: T1, CB1 receptor (Homo sapiens, UniProt P21554); assay: biochemical; format: binding; design: purchased RBHCB1M400UA
[2] = target: T1, CB1 receptor; assay: Signal transmission (CRE-luciferase) in CHO-CB1-CREluc cells, agonism and antagonism versus WIN; conditions: for Functional effect at the CB1 receptor (in words): text and FIGS. 4 to 6
[3] = target: T2, CB2 receptor (Homo sapiens, UniProt P34972); assay: Competition binding study with [3H]-CP55940 on membranes of CB2-transfected human cells; design: purchased RBXCB2M400UA; conditions: for Ki: mean +/- SEM, [3H]-CP55940 0.15 nM, triplicates; for Selectivity for CB2 compared to CB1 (fold): ratio of Ki CB1 to Ki CB2; for CB2 (% Binding): screening with a single high dose, displacement of [3H]-CP55940 0.15 nM
T2 sequence (P34972 whole entry): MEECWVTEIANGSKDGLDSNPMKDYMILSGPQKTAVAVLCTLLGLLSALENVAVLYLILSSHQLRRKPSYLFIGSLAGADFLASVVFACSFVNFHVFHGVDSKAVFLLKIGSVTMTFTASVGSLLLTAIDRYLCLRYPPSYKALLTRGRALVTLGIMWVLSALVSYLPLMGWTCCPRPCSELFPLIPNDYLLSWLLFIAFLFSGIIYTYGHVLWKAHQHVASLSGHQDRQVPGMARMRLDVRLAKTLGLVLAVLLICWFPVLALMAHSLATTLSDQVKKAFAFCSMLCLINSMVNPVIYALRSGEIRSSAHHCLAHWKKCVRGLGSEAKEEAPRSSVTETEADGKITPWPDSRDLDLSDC

[4] = target: T2, CB2 receptor; assay: Signal transmission (CRE-luciferase, forskolin) in CHO-CB2-CREluc cells, agonism; conditions: for Functional effect at the CB2 receptor (in words): FIGS. 2 and 3
[5] = target: CB2 receptor; conditions: Pertwee et al. Pharmacol. Rev. 2010; read-out: CB2 affinity (dissociation constant) listed in the literature; cited from earlier work

T1 sequence (P21554 whole entry): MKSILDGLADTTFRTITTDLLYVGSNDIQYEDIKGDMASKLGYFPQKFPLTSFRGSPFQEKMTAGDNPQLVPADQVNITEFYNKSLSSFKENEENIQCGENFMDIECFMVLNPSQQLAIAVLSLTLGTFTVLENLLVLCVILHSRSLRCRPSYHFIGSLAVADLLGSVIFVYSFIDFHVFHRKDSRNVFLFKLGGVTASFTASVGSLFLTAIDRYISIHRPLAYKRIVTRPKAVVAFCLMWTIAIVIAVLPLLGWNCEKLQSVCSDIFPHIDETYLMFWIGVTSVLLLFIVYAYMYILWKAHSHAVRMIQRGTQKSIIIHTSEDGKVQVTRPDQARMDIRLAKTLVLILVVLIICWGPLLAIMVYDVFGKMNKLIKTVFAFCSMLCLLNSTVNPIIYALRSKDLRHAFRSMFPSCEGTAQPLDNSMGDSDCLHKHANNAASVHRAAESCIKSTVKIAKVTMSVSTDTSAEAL

Structure (SMILES) | Binding to CB1 receptor (in words) [1] | CB1 (% Binding) [1] | Ki [1] | Agonism and antagonism at CB1 [2] | Functional effect at the CB1 receptor (in words) [2] | Binding to CB2 receptor (in words) [3] | Ki [3] | Selectivity for CB2 compared to CB1 (fold) [3] | CB2 (% Binding) [3] | Agonism and antagonism at CB2 [4] | Functional effect at the CB2 receptor (in words) [4] | Ki ([1]; read-out: Ki for CB1) | Ki [5]
C=C(C)[C@@H]1CCC(C)C=C1c1c(O)cc(CCC)c(C(=O)OCCCCCC)c1O (stereo partly shown) [HCBDV, hexylcannabidivarinolat] | strong binding to the receptors within the lower nanomolar range | 91.1% (n = 4) | 8.28 ± 0.69 nM | ++ | selective activation of CB1 receptors; also recorded: Dose-dependent agonism | strong binding to the receptors within the lower nanomolar range | 9.91 ± 2.46 nM | 0.8 fold | 98.5% (n = 3) | 0 |  |  | 
C=C(C)[C@@H]1CCC(C)C=C1c1c(O)cc(CCC)c(C(=O)OC2CCCCC2)c1O (stereo partly shown) [CHCBDV, cyclohexylcannabidivarinolat] | strong binding to the receptors within the lower nanomolar range | 82.4% (n = 4) | 13.2 ± 0.85 nM | ++ | CB1 and CB2 agonist; also recorded: Dose-dependent agonism | strong binding to the receptors within the lower nanomolar range | 4.62 ± 0.46 nM | 2.9 fold | 99.9% (n = 3) | ++ | CB1 and CB2 agonist; also recorded: Dose-dependent agonism |  | 
C=C(C)[C@@H]1CCC(C)=C[C@H]1c1c(O)cc(CCC)c(C(=O)OCCO)c1O [HECBDV, 2-hydroxyethylcannabidivarinolat] |  | 43.3% (n = 5) |  | − | inhibited; also recorded: Dose-dependent antagonism |  | 168 ± 39.4 nM | 33.6 fold | 95.0% (n = 3) | ++ | selective agonist; also recorded: Dose-dependent agonism | 5650 ± 3900 nM | 
